Experimental data from patent publication US8906952B2, “Indole derivative or pharmaceutically acceptable salt thereof, preparation method thereof, and pharmaceutical composition for preventing or treating metabolic diseases containing same as active ingredient” (Korea Research Institute of Bioscience and Biotechnology, priority 2011, dated 2014).
Like-named read-outs stand apart in the source and are kept apart here.

Assays:
Assay type in all cases: biochemical
DGAT-1 (rat liver) = target: T1, DGAT-1 (rat liver) (Rattus norvegicus, UniProt Q9ERM3); experiment: DGAT enzyme inhibition test, rat liver-derived DGAT enzyme; settings: rat liver microsomal protein
T1 construct: microsomal protein isolated from rat; from tissue; host or cells: rat liver microsomes
T1 sequence (Q9ERM3 1-498): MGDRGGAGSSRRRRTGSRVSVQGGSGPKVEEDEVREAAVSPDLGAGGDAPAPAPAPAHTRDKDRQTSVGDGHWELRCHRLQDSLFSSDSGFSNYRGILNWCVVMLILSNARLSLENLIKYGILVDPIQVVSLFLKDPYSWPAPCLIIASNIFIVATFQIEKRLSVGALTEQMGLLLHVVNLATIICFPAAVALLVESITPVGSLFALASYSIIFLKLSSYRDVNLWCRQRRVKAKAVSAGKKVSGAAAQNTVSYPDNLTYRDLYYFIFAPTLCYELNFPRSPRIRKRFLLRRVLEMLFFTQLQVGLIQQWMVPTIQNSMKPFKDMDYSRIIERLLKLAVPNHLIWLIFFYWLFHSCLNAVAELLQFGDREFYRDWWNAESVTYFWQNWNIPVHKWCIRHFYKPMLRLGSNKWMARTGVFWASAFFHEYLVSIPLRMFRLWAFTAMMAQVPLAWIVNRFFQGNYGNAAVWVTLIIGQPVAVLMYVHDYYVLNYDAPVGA
Text: (§1) To investigate inhibitory effect of the compounds of Examples 1-33 against DGAT enzyme activity, DGAT enzyme inhibition and DGAT2 selectivity were investigated using zymogen including:
3) rat liver-derived DGAT enzyme.
(§2) To be specific, for the purpose of measuring human-derived DGAT enzyme inhibitory activity, using the zymogen, including enzymes derived from insect cell overexpressing human DGAT1 and DGAT2 (‘sf9’), microsomal protein isolated from human duodenal adenocarcinoma (‘Hutu 80’), and microsomal protein isolated from rat, and according to Coleman et al., (Methods Enzymol., 98-103, 1992), and substrate including 1,2-diacylglycerol(Sigma, D0138) and [^14C]palmitoyl-CoA (Amersham, CFA583), the amount of radiation of [^14C]triacylglycerol produced after enzymatic reaction was measured.
(§3) To be more specific, to the reaction solution containing 175 mM Tris-HCl (pH 8.0), 20 μl bovine serum albumin (10 mg/ml), 100 mM magnesium chloride, 30 μM [^14C]palmitoyl CoA (0.02 μCi, Amersham) and 200 μM 1,2-dioleoylglycerol, reagent dissolved in dimethylsulfoxide (10.0 μl) was added. After introducing 100 to 200 μg isolated microsomal protein and allowing the same to react at 25° C. for 10 min, the reaction was stopped by adding 1.5 ml stop solution (2-propanol:heptane:water=80:20:2, v:v:v). To isolate the product of the reaction (i.e., [^14C]triacylglycerol), 1 ml heptane and 0.5 ml distilled water were added and then decocted. After taking 1 ml supernatant, 2 ml alkaline ethanol solution (ethanol:0.5 N sodium hydroxide:water=50:10:40, v:v:v) were added and then decocted. After taking 0.65 ml supernatant from the decoction, the amount of radiation was measured with liquid scintillation counter (LSC). The DGAT inhibitory activity was calculated with Mathematical Expression 1 below:
(§4) T denotes cpm of experimental group in which the enzymatic reaction solution was treated with the sample,
(§5) C denotes cpm of control group in which the enzymatic reaction solution was not treated with the sample, and
(§6) B denotes cpm of control group treated with the sample without zymogen.

human DGAT1 = target: T2, human DGAT1 (Homo sapiens, UniProt O75907); experiment: DGAT enzyme inhibition test, hDGAT1 enzyme from sf9 insect cells; settings: enzyme from sf9 cells overexpressing hDGAT1; read-out: hDGAT-1 (sf9) IC50
T2 construct: made in house; host or cells: sf9 insect cells
T2 sequence (O75907 1-488): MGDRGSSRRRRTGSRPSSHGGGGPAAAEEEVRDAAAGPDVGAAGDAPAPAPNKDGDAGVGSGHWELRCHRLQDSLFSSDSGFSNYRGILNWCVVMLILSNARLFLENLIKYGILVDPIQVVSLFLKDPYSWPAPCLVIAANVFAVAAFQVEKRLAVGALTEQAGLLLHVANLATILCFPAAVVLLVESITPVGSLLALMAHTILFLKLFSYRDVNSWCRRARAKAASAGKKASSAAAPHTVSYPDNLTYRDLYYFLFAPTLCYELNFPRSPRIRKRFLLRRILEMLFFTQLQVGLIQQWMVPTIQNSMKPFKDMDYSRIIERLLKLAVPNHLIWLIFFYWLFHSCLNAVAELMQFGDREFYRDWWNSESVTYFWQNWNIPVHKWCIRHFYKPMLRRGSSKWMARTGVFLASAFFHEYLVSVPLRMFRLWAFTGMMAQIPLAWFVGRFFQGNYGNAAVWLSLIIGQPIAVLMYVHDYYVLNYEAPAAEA
Text: as §1
(§7) 1) hDGAT1 and hDGAT2 enzymes, derived from insect cell overexpressing human DGAT1 and DGAT2 (‘sf9’), respectively,
as §2, §3, §4, §5, §6

human DGAT2 = target: T3, human DGAT2 (Homo sapiens, UniProt Q96PD7); experiment: DGAT enzyme inhibition test, hDGAT2 enzyme from sf9 insect cells (DGAT2 selectivity)
T3 construct: made in house; host or cells: sf9 insect cells
T3 sequence (Q96PD7 1-388): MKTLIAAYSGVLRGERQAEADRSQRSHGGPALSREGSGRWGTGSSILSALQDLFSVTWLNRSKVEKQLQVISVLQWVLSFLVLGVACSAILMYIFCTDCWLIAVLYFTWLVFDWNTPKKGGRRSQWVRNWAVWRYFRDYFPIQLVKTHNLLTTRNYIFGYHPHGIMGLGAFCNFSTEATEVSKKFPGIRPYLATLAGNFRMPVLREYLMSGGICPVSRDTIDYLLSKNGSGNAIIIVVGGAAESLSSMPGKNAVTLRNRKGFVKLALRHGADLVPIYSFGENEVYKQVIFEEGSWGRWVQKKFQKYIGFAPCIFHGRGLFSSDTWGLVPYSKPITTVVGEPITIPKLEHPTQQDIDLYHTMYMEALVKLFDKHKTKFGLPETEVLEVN
Text: as §1, §7, §2, §3, §4, §5, §6

hDGAT-1 (HuTu 80) = target: T4, hDGAT-1 (HuTu 80) (Homo sapiens, UniProt O75907); experiment: DGAT enzyme inhibition test, microsomal protein from human duodenal adenocarcinoma (Hutu 80); settings: microsomal protein from HuTu 80
T4 construct: microsomal protein isolated from human duodenal adenocarcinoma (‘Hutu 80’); endogenous in cells; host or cells: HuTu 80 human duodenal adenocarcinoma cells (microsomes)
T4 sequence (O75907 1-488): T2 sequence (O75907 1-488)
Text: as §1
2) DGAT enzyme derived from human duodenal adenocarcinoma (‘Hutu 80’), and
as §2, §3, §4, §5, §6

[1] = 10 μM, enzyme from sf9 cells overexpressing hDGAT2, read-out: hDGAT-2 (sf9) inhibition rate(%)at 10 μM
[2] = concentration of 10 μM, read-out: hDGAT2 inhibition

Structure (SMILES) | IC50 (DGAT-1 (rat liver)) [µM] | IC50 (human DGAT1) [µM] | inhibition at 10 µM (human DGAT2; [1]) [%] | IC50 (hDGAT-1 (HuTu 80)) [µM] | inhibition at 10 µM (human DGAT2; [2]) [%]
CC(C)N(NC(=O)c1ccccc1)C(=O)/C=C/c1cn(C(=O)C(C)(C)C)c2ccccc12 [Example 31, (E)-N′-isopropyl-N′-(3-(1-pivaloyl-1H-indol-3-yl)acryloyl)benzohydrazide] | 3.4 | 9.3 | 4.4 | 5.1 | < 11
CC(C)N(NC(=O)c1cccc(OCCN2CCOCC2)c1)C(=O)/C=C/c1cn(C(=O)OC(C)(C)C)c2ccccc12 [Example 8, (E)-tert-butyl 3-(3-(1-isopropyl-2-(3-(2-morpholinoethoxy)benzoyl)hydrazinyl)-3-oxoprop-1-enyl)-1H-indole-1-carboxylate] | 2.5 | > 100 | < 0 | 9.3 | 
CC(C)N(NC(=O)c1ccccc1)C(=O)CCc1cn(C(=O)OC(C)(C)C)c2ccccc12 [Example 24, tert-butyl 3-(3-(2-benzoyl-1-isopropylhydrazinyl)-3-oxopropyl)-1H-indole-1-carboxylate] | 8.6 | > 100 | < 0 | 9.2 | 
CC(C)N(NC(=O)c1ccc(Br)cc1)C(=O)/C=C/c1cn(C(=O)OC(C)(C)C)c2ccccc12 [Example 13, (E)-tert-butyl 3-(3-(2-(4-bromobenzoyl)-1-isopropylhydrazinyl)-3-oxoprop-1-enyl)-1H-indole-1-carboxylate] | 9.1 | 20.4 | 2.3 | 8.1 | < 11
CC(C)N(NC(=O)c1ccc(F)cc1)C(=O)/C=C/c1cn(C(=O)OC(C)(C)C)c2ccccc12 [Example 44, (E)-tert-butyl 3-(3-(2-(4-fluorobenzoyl)-1-isopropylhydrazinyl)-3-oxoprop-1-enyl)-1H-indole-1-carboxylate] |  | 2.1 | 28.9 |  | 

Continued, values first:

IC50 (DGAT-1 (rat liver)) [µM] | IC50 (human DGAT1) [µM] | inhibition at 10 µM (human DGAT2; [1]) [%] | IC50 (hDGAT-1 (HuTu 80)) [µM] | inhibition at 10 µM (human DGAT2; [2]) [%] | Structure (SMILES)
11.8 | > 100 | < 0 | 19.6 |  | CC(C)N(NC(=O)c1ccc(OCCN2CCOCC2)cc1)C(=O)/C=C/c1cn(C(=O)OC(C)(C)C)c2ccccc12 [Example 9, (E)-tert-butyl 3-(3-(1-isopropyl-2-(4-(2-morpholinoethoxy)benzoyl)hydrazinyl)-3-oxoprop-1-enyl)-1H-indole-1-carboxylate]
22.5 | 65.3 | < 0 | 27 |  | CC(=O)n1cc(/C=C/C(=O)N(NC(=O)c2ccccc2)C(C)C)c2ccccc21 [Example 30, (E)-N′-(3-(1-acetyl-1H-indol-3-yl)acryloyl)-N′-isopropylbenzohydrazide]
31.4 | 95.1 | < 0 | 25.8 |  | CC(C)N(NC(=O)c1ccccc1)C(=O)CCc1c[nH]c2ccccc12 [Example 23, N′-(3-(1H-indol-3-yl)propanoyl)-N′-isopropylbenzohydrazide]
 | 9.8 | 22.1 |  |  | Cc1ccc(C(=O)NN(C(=O)/C=C/c2cn(C(=O)OC(C)(C)C)c3ccccc23)C(C)C)cc1 [Example 48, (E)-tert-butyl 3-(3-(1-isopropyl-2-(4-methylbenzoyl)hydrazinyl)-3-oxoprop-1-enyl)-1H-indole-1-carboxylate]
 | 2.9 | 34.1 |  |  | Cc1cccc(C(=O)NN(C(=O)/C=C/c2cn(C(=O)OC(C)(C)C)c3ccccc23)C(C)C)c1 [Example 47, (E)-tert-butyl 3-(3-(1-isopropyl-2-(3-methylbenzoyl)hydrazinyl)-3-oxoprop-1-enyl)-1H-indole-1-carboxylate]
 | 1.5 | 28 |  |  | CC(C)=CCn1cc(/C=C/C(=O)N(NC(=O)c2ccc(F)cc2)C(C)C)c2ccccc21 [Example 49, (E)-4-fluoro-N′-isopropyl-N′-(3-(1-(3-methylbut-2-enyl)-1H-indol-3-yl)acryloyl)benzohydrazide]
 | 1 | 64 |  |  | CC(C)CCn1cc(/C=C/C(=O)N(NC(=O)c2ccc(F)cc2)C(C)C)c2ccccc21 [Example 46, (E)-4-fluoro-N′-(3-(1-isopentyl-1H-indol-3-yl)acryloyl)-N′-isopropylbenzohydrazide]
